In PMC11701928, “Co-crystal structure of Helicobacter pylori biotin protein ligase with biotinyl-5-ATP” (Acta Crystallographica Section F: Structural Biology …, 2025):

Target: T1, HpBPL (Helicobacter pylori, UniProt B5Z8D8)
T1 construct: gene HPG27_1085
T1 sequence (B5Z8D8 1-212): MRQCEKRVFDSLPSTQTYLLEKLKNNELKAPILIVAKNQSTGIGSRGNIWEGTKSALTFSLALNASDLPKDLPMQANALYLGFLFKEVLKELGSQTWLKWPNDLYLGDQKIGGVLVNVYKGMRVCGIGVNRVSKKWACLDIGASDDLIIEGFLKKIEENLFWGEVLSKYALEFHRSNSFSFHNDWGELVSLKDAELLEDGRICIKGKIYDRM
Assay: turnover to biotinyl-5-ATP seen in crystal structure
Format: biochemical
Details: 10 min

Row | SMILES | turnover to biotinyl-5-ATP seen in crystal structure (6 mM ATP with 6 mM biotin and 6 mM MgCl2, 25 °C) | turnover to biotinyl-5-ATP seen in crystal structure (6 mM biotin with 6 mM ATP and 6 mM MgCl2, 25 °C)
1 | Nc1ncnc2c1ncn2[C@@H]1O[C@H](COP(=O)(O)OP(=O)(O)OP(=O)(O)O)[C@@H](O)[C@H]1O [ATP] | catalytically active and generates biotinyl-5-ATP upon incubation with MgCl2, ATP and biotin | –
2 | O=C(O)CCCC[C@@H]1SC[C@@H]2NC(=O)N[C@@H]21 [biotin] | – | catalytically active and generates biotinyl-5-ATP upon incubation with MgCl2, ATP and biotin
